Laboratory results reported in ChEMBL document CHEMBL3769394, “The Importance of Being Me: Magic Methyls, Methyltransferase Inhibitors, and the Discovery of Tazemetostat” (J Med Chem, 2016).
Activity calls are given as the source filed them. No cut-off for these calls is given here.

Columns and labels:
[1] = target: T1, Histone-lysine N-methyltransferase EZH2 (Homo sapiens, UniProt Q15910); assay: Inhibition of methyltransferase activity of human EZH2 using chicken oligonucleosomes as substrate by pull down assay
Target sequence in this assay (Q15910 whole entry): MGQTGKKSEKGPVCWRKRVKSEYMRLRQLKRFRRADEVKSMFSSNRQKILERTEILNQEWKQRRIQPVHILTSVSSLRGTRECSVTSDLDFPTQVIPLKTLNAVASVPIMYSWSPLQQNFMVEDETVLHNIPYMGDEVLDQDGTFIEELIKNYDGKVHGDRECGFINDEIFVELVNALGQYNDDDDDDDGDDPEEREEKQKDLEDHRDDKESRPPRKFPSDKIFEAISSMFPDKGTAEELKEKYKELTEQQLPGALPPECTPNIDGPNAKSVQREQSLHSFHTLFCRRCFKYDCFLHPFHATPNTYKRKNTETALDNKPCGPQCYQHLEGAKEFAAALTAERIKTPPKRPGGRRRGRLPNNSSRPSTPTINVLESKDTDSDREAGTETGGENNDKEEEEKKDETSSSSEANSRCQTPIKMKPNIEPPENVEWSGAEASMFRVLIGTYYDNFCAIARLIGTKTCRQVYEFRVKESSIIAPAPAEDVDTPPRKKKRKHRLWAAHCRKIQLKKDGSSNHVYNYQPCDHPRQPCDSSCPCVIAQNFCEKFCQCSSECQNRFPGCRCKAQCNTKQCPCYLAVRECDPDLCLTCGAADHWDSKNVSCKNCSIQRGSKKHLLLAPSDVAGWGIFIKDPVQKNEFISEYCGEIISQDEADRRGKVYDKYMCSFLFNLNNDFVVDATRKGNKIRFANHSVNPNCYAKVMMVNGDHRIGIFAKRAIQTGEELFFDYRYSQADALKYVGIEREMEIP

[2] = Clearance in mouse at 2 mg/kg, iv and 10 mg/kg, po by LC-MS/MS analysis; type: ADME, organism-based; conditions: in vivo
[3] = AUC in mouse at 2 mg/kg, iv and 10 mg/kg, po by LC-MS/MS analysis; type: ADME, organism-based; conditions: in vivo
[4] = Volume of distribution at steady state in mouse at 2 mg/kg, iv and 10 mg/kg, po by LC-MS/MS analysis; type: ADME, organism-based; conditions: in vivo, read-out: Vdss
[5] = Oral bioavailability in mouse at 10 mg/kg by LC-MS/MS analysis; type: ADME, organism-based; conditions: in vivo
[6] = Aqueous solubility of the compound at pH 7; type: physicochemical
[7] = target: T1, Histone-lysine N-methyltransferase EZH2; assay: Inhibition of methyltransferase activity of human EZH2 using chicken oligonucleosomes as substrate up to 10 uM by pull down assay
Target sequence in this assay (Q15910 whole entry, looked up): as the sequence (Q15910 whole entry) above

**Q.** For `Cc1cc(C)c(CNC(=O)c2cccc3c2nnn3C(C)C)c(=O)[nH]1`, which IC50 [1] is on record?
**A.** > 50 µM

**Q.** For `Cc1cc(C)c(CNC(=O)c2cccc3c2ncn3C(C)C)c(=O)[nH]1`, which IC50 [1] is on record?
**A.** > 50 µM

**Q.** For `Cc1cc(C)c(CNC(=O)c2cc(Br)nc3c2cnn3C2CCN(C(=O)C(C)(C)C)CC2)c(=O)[nH]1`, which IC50 [1] is on record?
**A.** 0.05 µM

**Q.** Which IC50 [1] does the source give for `Cc1cc(C)c(CNC(=O)c2cc(Br)nc3c2cnn3C2CCNCC2)c(=O)[nH]1` here?
**A.** 2.2 µM

**Q.** Which results are given for `Cc1cc(C)c(CNC(=O)c2cc(Br)cc(N(C)C3CCCC3)c2C)c(=O)[nH]1`?
**A.** clearance [2]: 18 mL/min/kg; AUC [3]: 46 ng·h/mL; Vd [4]: 0.97 L/kg; bioavailability [5]: 2%

**Q.** What does the source list for `Cc1cc(C)c(CNC(=O)c2cc(-c3ccc(CN4CCOCC4)cc3)cc3c2cnn3C2CCCC2)c(=O)[nH]1`?
**A.** clearance [2]: 11 mL/min/kg; AUC [3]: 2900 ng·h/mL; Vd [4]: 0.49 L/kg; bioavailability [5]: 47%

**Q.** For `Cc1cc(C)c(CNC(=O)c2cc(Br)nc3c2cnn3C2CCN(C(=O)OC(C)(C)C)CC2)c(=O)[nH]1`, which IC50 [1] is on record?
**A.** 0.2 µM

**Q.** Which IC50 [1] does the source give for `Cc1cc(C)c(CNC(=O)c2cc(Br)nc3c2cnn3C2CCOCC2)c(=O)[nH]1` here?
**A.** 0.7 µM

**Q.** For `Cc1cc(C)c(CNC(=O)c2cc(-c3ccc(CN4CCOCC4)cc3)nc3c2cnn3C(C)C)c(=O)[nH]1`, which solubility ([6]; buffer) is on record?
**A.** soluble

**Q.** And the clearance [2]?
**A.** 35 mL/min/kg

**Q.** What about the AUC [3] of the same compound?
**A.** 950 ng·h/mL

**Q.** And the Vd [4]?
**A.** 1.5 L/kg

**Q.** What about the bioavailability [5] of the same compound?
**A.** 41%

**Q.** What does the source list for `Cc1cc(C)c(CNC(=O)c2cc(Br)nc3c2cnn3C(C)C)c(=O)[nH]1`?
**A.** solubility ([6]; buffer): soluble; IC50 [1]: 0.9 µM

**Q.** Which results are given for `Cc1cc(C)c(CNC(=O)c2cc(C)n(C3CCCCC3)c2C)c(=O)[nH]1`?
**A.** solubility ([6]; aqueous, read-out: solubility): < 10 µM; IC50 [1]: 3.4 µM

**Q.** What does the source list for `COc1cc(C(=O)NCc2c(C)cc(C)[nH]c2=O)c2cnn(C(C)C)c2n1`?
**A.** solubility ([6]; buffer): soluble; IC50 [1]: 2.4 µM

**Q.** Which IC50 [1] does the source give for `Cc1cc(C)c(CNC(=O)c2ccc3cnn(C4CCCC4)c3c2)c(=O)[nH]1` here?
**A.** > 50 µM

**Q.** Which results are given for `Cc1cc(C)c(CNC(=O)c2cc(-c3ccc(N4CCNCC4)nc3)nc3c2cnn3C(C)C)c(=O)[nH]1`?
**A.** solubility ([6]; buffer): soluble; IC50 [1]: 0.2 µM

**Q.** Which IC50 [1] does the source give for `CCN(c1ccc(Cl)c(C(=O)N(C)Cc2c(C)cc(C)[nH]c2=O)c1C)C1CCOCC1` here?
**A.** 0.2 µM

**Q.** With `Cc1cc(C)c(CNC(=O)c2cc(-c3ccc4c(c3)OCCO4)nc3c2cnn3C(C)C)c(=O)[nH]1` as the compound, how does the IC50 [1] read?
**A.** 0.5 µM

**Q.** And the clearance [2]?
**A.** 24 mL/min/kg

**Q.** And the AUC [3]?
**A.** 700 ng·h/mL

**Q.** And the Vd [4]?
**A.** 1.3 L/kg

**Q.** What about the bioavailability [5] of the same compound?
**A.** 0.5%

**Q.** What does the source list for `CCN(c1cc(Cl)cc(C(=O)NCc2c(C)cc(C)nc2OC)c1C)C1CCOCC1`?
**A.** IC50 [1]: > 10 µM; inhibition [7]: inactive

**Q.** For `Cc1cc(C)c(CNC(=O)c2cc(C3=CC(C)(C)NC(C)(C)C3)nc3c2cnn3C)c(=O)[nH]1`, which IC50 [1] is on record?
**A.** 39 µM

**Q.** For `Cc1cc(C)c(CNC(=O)c2cc(Br)nc3c2cnn3C2CCN(C(=O)N(C)C)CC2)c(=O)[nH]1`, which IC50 [1] is on record?
**A.** 0.05 µM

**Q.** For `Cc1cc(C)c(CNC(=O)c2cc(-c3ccc(CN4CCOCC4)cc3)cc(N(C)C3CCCC3)c2C)c(=O)[nH]1`, which clearance [2] is on record?
**A.** 16 mL/min/kg

**Q.** And the AUC [3]?
**A.** 2500 ng·h/mL

**Q.** What about the Vd [4] of the same compound?
**A.** 0.66 L/kg

**Q.** What about the bioavailability [5] of the same compound?
**A.** 24%

**Q.** Which solubility ([6]; buffer) does the source give for `Cc1cc(C)c(CNC(=O)c2cc(C3=CC(C)(C)NC(C)(C)C3)nc3c2cnn3C(C)C)c(=O)[nH]1` here?
**A.** soluble

**Q.** What about the IC50 [1] of the same compound?
**A.** 0.3 µM

**Q.** With `Cc1cc(C)c(CNC(=O)c2ccc3cnn(C(C)C)c3c2)c(=O)[nH]1` as the compound, how does the IC50 [1] read?
**A.** > 50 µM

**Q.** With `Cc1cc(C)c(CNC(=O)c2ccnc3c2cnn3C(C)C)c(=O)[nH]1` as the compound, how does the solubility ([6]; buffer) read?
**A.** soluble

**Q.** And the IC50 [1]?
**A.** 3.1 µM

**Q.** For `CCN(c1cc(-c2ccc(CN3CCOCC3)cc2)cc(C(=O)NCc2c(C)cc(C)[nH]c2=O)c1C)C1CCOCC1` [TAZEMETOSTAT], which clearance [2] is on record?
**A.** 13 mL/min/kg

**Q.** And the AUC [3]?
**A.** 2500 ng·h/mL

**Q.** What about the Vd [4] of the same compound?
**A.** 1 L/kg

**Q.** What about the bioavailability [5] of the same compound?
**A.** 55%

**Q.** Which IC50 [1] does the source give for `Cc1cc(C)c(CNC(=O)c2cccc3c2ccn3C(C)C)c(=O)[nH]1` here?
**A.** 3.1 µM

**Q.** For `CCN(c1cc(Cl)cc(C(=O)NCc2c(C)cc(C)[nH]c2=O)c1)C1CCOCC1`, which IC50 [1] is on record?
**A.** 14 µM

**Q.** For `Cc1cc(C)c(CNC(=O)c2ccc3c(cnn3C(C)C)c2)c(=O)[nH]1`, which IC50 [1] is on record?
**A.** 22 µM

**Q.** With `CCN(c1cc(Cl)cc(C(=O)NCc2c(C)cc(C)[nH]c2=O)c1C)C1CCOCC1` as the compound, how does the clearance [2] read?
**A.** 49 mL/min/kg

**Q.** What about the AUC [3] of the same compound?
**A.** 680 ng·h/mL

**Q.** What about the Vd [4] of the same compound?
**A.** 0.45 L/kg

**Q.** And the bioavailability [5]?
**A.** 1.6%

**Q.** With `Cc1cc(C)c(CNC(=O)c2cccc3c2cnn3C(C)C)c(=O)[nH]1` as the compound, how does the IC50 [1] read?
**A.** 1.1 µM

**Q.** Which IC50 [1] does the source give for `Cc1cc(C)c(CNC(=O)c2ccc3cnn(C4CCCC4)c3c2C)c(=O)[nH]1` here?
**A.** 6 µM

**Q.** With `Cc1cc(C)c(CNC(=O)c2cc(N3CCNCC3)nc3c2cnn3C(C)C)c(=O)[nH]1` as the compound, how does the solubility ([6]; buffer) read?
**A.** soluble

**Q.** What about the IC50 [1] of the same compound?
**A.** 1.6 µM

**Q.** For `Cc1cc(C)c(CNC(=O)c2cc(Br)cc(N(C)C3CCOCC3)c2C)c(=O)[nH]1`, which clearance [2] is on record?
**A.** 90 mL/min/kg

**Q.** And the AUC [3]?
**A.** 350 ng·h/mL

**Q.** What about the Vd [4] of the same compound?
**A.** 2.7 L/kg

**Q.** What about the bioavailability [5] of the same compound?
**A.** 18%

**Q.** For `CCn1ncc2c(C(=O)NCc3c(C)cc(C)[nH]c3=O)cc(C3=CC(C)(C)NC(C)(C)C3)nc21`, which IC50 [1] is on record?
**A.** 5 µM

**Q.** With `Cc1cc(C)c(CNC(=O)c2cc(C(C)C)nc3c2cnn3C(C)C)c(=O)[nH]1` as the compound, how does the solubility ([6]; buffer) read?
**A.** soluble

**Q.** And the IC50 [1]?
**A.** 2.3 µM
